Assay results as given in patent US6042841A, “Cosmetic method of treating skin” (Unilever Home & Personal Care USA Division of Conopco, Inc., priority 1998, dated 2000).

How the values were obtained:
[1] = tested on: ICAM; experiment: ICAM-1 assay, PMA-induced ICAM production in human skin fibroblasts; format: cell-based; conditions: PMA (10 nM)-treated; N 4
Protocol: Intracellular adhesion molecules (ICAM) and PEG2 production by human skin fibroblasts can be induced by the inflammatory stimulus PMA (phorbal myristate acetate). PMA represents an external stressor which induces oxidative stress and inflammatory responses in cells. This model is used to model inflammation in vivo.
Primary human foreskin fibroblasts at passage 2 (P2) were seeded into 96-well plates at 10000 cells/well and maintained for 24 hours in an atmosphere of 5% carbon dioxide in Dulbeccos Modified Eagles Medium (DMEM) supplemented with 10% foetal calf serum. […] Phorbal myristate acetate (PMA) (Sigma) was added to the media and the cells incubated for a further 24 hours. […] The fibroblasts/media were then analysed as described below immediately or snap frozen in liquid nitrogen and stored at -70° C. for future analysis. The cells were then counted and data from the dot-blot analysis subsequently standardised to cell number.
ICAM-1 assay: Media were discarded and cells washed with Dulbecco PBS. To the washed cells, 150 μl 0.1% Triton X-100 (Sigma) was added for 3 minutes to extract ICAM from cell membrane. The extracts were transferred to Eppendoff centrifuge tubes and centrifuged at 1000 g for 2 min to remove cell debris. A volume of 100 μl supernatant was used for ICAM assay. The soluble ICAM-1 was assessed with commercially available immunoenzymometric assay kit (R&D Systems). Concentrations of ICAM-1 in the samples were determined based on parallelly running standard curve.

[2] = tested on: procollagen-I; experiment: Immunohistochemical analysis of procollagen-I expression in photodamaged skin biopsies after topical retinoic acid; format: in vivo, human (women); conditions: for No. of Participants showing marked increase in expression of procollagen-I: 0.05% retinoic acid topical
Text: (§1) Two groups of women were recruited with identical or nearly identical degrees of mild to moderate photodamage on each outer forearm. They were supplied with 0.05% retinoic acid in a moisturising base (Retinova®) and also with a colour matched moisturising cream with similar sensory characteristics (Dermacare® lotion), but no active ingredients, as a placebo control. Each participant of the two groups applied the Retinova® to one outer forearm and placebo (Dermacare®) to the other outer forearm. Group 1 applied the products daily to their outer forearms for 14 weeks and the Group 2 applied the products to their outer forearms for 28 weeks. At the end of the studies two full thickness 4 mm punch biopsies were taken from the treated areas of each forearm. Immunohistochemical analysis of the biopsy tissue taken from the participants was performed to identify the effect of retinoic acid treatment on the expression of the skin extracellular matrix components, decorin and procollagen-I, as compared with the placebo treated forearms. The following procedure was followed:
(§2) Antibody dilution buffer for wax sections was composed of Tris Buffered Saline (TBS), 3% bovine serum albumin (BSA), 0.05% Triton X-100 and 0.05% sodium azide. Primary antibodies for procollagen-I (amino terminal) were obtained from Chemicon International Inc. (cat# MAB 1912, rat IgGl) and used on wax sections at a dilution of 1:800, overnight at 4° C. after the section had been pre-treated with trypsin (0.5 mg/ml, 25 minutes, 37° C.). Primary antibodies for decorin were obtained from Biogenesis (rabbit polyclonal) and used on wax sections at a dilution of 1:800, overnight at 4° C. Anti-rat biotinylated secondary antibodies, obtained from DAKO (cat# E0468, rabbit polyclonal), were applied to wax sections at a dilution of 1:400. Anti-rabbit biotinylated secondary antibodies, obtained from Amersham (cat# RPN 1004, donkey polyclonal), were applied to wax sections at a dilution of 1:400. Streptavidin conjugated alkaline phosphatase, obtained from Zymed (cat# 43-4322), was used at a concentration of 1:2500. […]

[3] = tested on: decorin; experiment: Immunohistochemical analysis of decorin expression in photodamaged skin biopsies after topical retinoic acid; format: in vivo, human (women); conditions: for No. of Participants showing marked increase in expression of decorin: 0.05% retinoic acid topical
Text: as §1, §2

[4] = tested on: decorin; experiment: Dot blot assay for decorin synthesis in human dermal fibroblasts; format: cell-based; conditions: Homo sapiens, Fibroblast, 24 h; 1 μm (so in the source); p=0.035, n=4; comparative trial; read-out: Decorin synthesis relative to vehicle treated control value of 100
Protocol: Primary human foreskin fibroblasts at passage 2 (P2) were seeded into 12-well plates at 10000 cells/cm^2 and maintained for 24 hours in an atmosphere of 5% carbon dioxide and 4% oxygen in Dulbeccos Modified Eagles Medium (DMEM) supplemented with 10% foetal calf serum. After this time the cells were washed with serum free DMEM and then incubated in fresh serum free DMEM for a further 60 hours. The fibroblast monolayers were then washed again with serum free DMEM. Test reagents and vehicle controls were added to the cells in triplicate in a final volume of 0.4 ml/well fresh serum free DMEM and incubated for a further 24 hours. This fibroblast conditioned medium was either analysed immediately or snap frozen in liquid nitrogen and stored at -70° C. for future analysis. The cells were then counted and data from the dot-blot analysis subsequently standardised to cell number.
Samples of conditioned medium from dermal fibroblasts treated with vehicle (as a control) or test reagents were supplemented with 20 mM dithiothreitol (1:10 dilution of 200 mM stock solution) and 0.1% sodium dodecylsulphate (1:100 dilution of 10% stock solution), mixed well and then incubated at 75° C. for 2 minutes. A standard for the assay was generated by serial dilution of neat fibroblast conditioned medium from fibroblasts seeded at 10000 cells/cm^2 in a 175 cm^2 flask and maintained in serum free DMEM as described above. Assay samples were subsequently applied in triplicate to a prewetted sheet of Immobilon-P transfer membrane using the 96-well Bio-Dot Apparatus from Bio-Rad as described in the manufacturers guidelines. Approximately 200 μl of medium was applied per well. […] Dot intensity was assessed by computer-assisted image analysis using the quantification tools in ImageQuant™, standardised to cell number and the effects of various test reagents on decorin and procollagen-I synthesis were determined relative to a vehicle treated control value of 100 arbitrary units.

[5] = tested on: keratinocytes; experiment: Keratinocyte SDS viability assay (Neutral Red); format: cell-based; conditions: Keratinocyte; SDS 2 μg/ml, PA 0; 24 hours; n 8
Protocol: After incubating for 24 hours the medium was removed and the viability determined by the Neutral Red method.

[6] = Group 1 after 14 weeks, total 16 participants, daily
[7] = Group 2 after 28 weeks, total 15 participants
[8] = topical application of Retinova, vs placebo

CCCCCCCCCCCCCC(=O)O[C@@H]1[C@@H](C)[C@@]2(O)[C@@H](C=C(CO)C[C@]3(O)C(=O)C(C)=C[C@@H]23)[C@@H]2C(C)(C)[C@]12OC(C)=O [PMA, phorbal myristate acetate, reference compound]
ICAM [1]: 14.42 ± 1.86 ng/mL

CC1=C(/C=C/C(C)=C/C=C/C(C)=C/C(=O)O)C(C)(C)CCC1 [Retinoic Acid, retinoic acid]
No. of Participants showing marked increase in expression of procollagen-I [2, 6]: 9
No. of Participants showing marked increase in expression of procollagen-I [2, 7]: 10
procollagen-I expression in photodamaged skin (in words) [2, 8]: marked upregulation
No. of Participants showing marked increase in expression of decorin [3, 6]: 10
No. of Participants showing marked increase in expression of decorin [3, 7]: 15
decorin expression in photodamaged skin (in words) [3, 8]: marked upregulation
activity at 1 µM [4]: 138 ± 14%

CCCCCCCCCCCCOS(=O)(=O)[O-].[Na+] [SDS, sodium dodecyl sulphate, reference compound]
viability at 2 µg/mL [5]: 55.8%
